PMC5603573, “Cyclipostins and Cyclophostin analogs as promising compounds in the fight against tuberculosis” (Scientific Reports, 2017)
Values after ≈ are worked out from the molar mass of the structure shown. Like-named read-outs stand apart in the source and are kept apart here.

How the values were obtained:
M. tb mc^26230-Ag85C = experiment: microbe, parasite or virus in culture; format: cell-based, Mycobacterium tuberculosis
M. tb mc^26230-Ag85A = experiment: microbe, parasite or virus in culture; format: cell-based, Mycobacterium tuberculosis
[1] = system: M. tb mc^26230-empty vector; experiment: REMA, empty vector strain; format: cell-based, Mycobacterium tuberculosis
M. tb mc^26230 WT = experiment: microbe, parasite or virus in culture; format: cell-based
M. tb mc^26230-LipH = experiment: microbe, parasite or virus in culture; format: cell-based, Mycobacterium tuberculosis; conditions: for MIC50: REMA
M. tb mc^26230-TesA = experiment: microbe, parasite or virus in culture; format: cell-based, Mycobacterium tuberculosis
M. tb mc^26230-Rv0183 = experiment: microbe, parasite or virus in culture; format: cell-based, Mycobacterium tuberculosis
M. tb mc^26230-HsaD = experiment: microbe, parasite or virus in culture; format: cell-based, Mycobacterium tuberculosis; conditions: for MIC50: REMA
[2] = Mycobacterium tuberculosis, REMA

Structure (SMILES): CCCCCCCCCCCCCCCCOP1(=O)OCCC(C(=O)OC)=C(C)O1 (stereo not drawn) [CyC 17]
- MIC50 ratio mutant/WT (M. tb mc^26230-Ag85C): 0.98
- MIC50 (M. tb mc^26230-Ag85C; [2]): 0.54 ± 0.009 µM (≈ 0.241 µg/mL)
- MIC50 ratio mutant/WT (M. tb mc^26230-Ag85A): 1.00
- MIC50 (M. tb mc^26230-Ag85A; [2]): 0.55 ± 0.014 µM (≈ 0.246 µg/mL)
- MIC50 ratio mutant/WT [1]: 0.95
- MIC50 ratio mutant/WT (M. tb mc^26230 WT): 1.00
- increase in the MIC50 value compared to WT strain (M. tb mc^26230-LipH): around 1.3 fold
- MIC50 ratio mutant/WT (M. tb mc^26230-LipH; M. tb mc^26230-LipH): 1.31
- MIC50 (M. tb mc^26230-LipH; M. tb mc^26230-LipH): 0.72 ± 0.020 µM (≈ 0.322 µg/mL)
- MIC50 (M. tb mc^26230-LipH; Mycobacterium tuberculosis, M. tb mc^26230-LipH, read-out: MIC50): 0.72 ± 0.02 µM (≈ 0.322 µg/mL)
- MIC50 ratio mutant/WT (M. tb mc^26230-TesA): 0.95
- MIC50 (M. tb mc^26230-TesA; [2]): 0.52 ± 0.012 µM (≈ 0.232 µg/mL)
- MIC50 ratio mutant/WT (M. tb mc^26230-Rv0183; M. tb mc^26230-Rv0183): 0.80
- MIC50 (M. tb mc^26230-Rv0183; Mycobacterium tuberculosis, M. tb mc^26230-Rv0183, REMA): 0.44 ± 0.013 µM (≈ 0.196 µg/mL)
- increase in MIC50 value compared to WT strain (M. tb mc^26230-HsaD): 2.2 fold
- MIC50 ratio mutant/WT (M. tb mc^26230-HsaD; M. tb mc^26230-HsaD): 2.18
- MIC50 (M. tb mc^26230-HsaD; M. tb mc^26230-HsaD): 1.20 ± 0.026 µM (≈ 0.536 µg/mL)
- MIC50 (M. tb mc^26230-HsaD; Mycobacterium tuberculosis, M. tb mc^26230-HsaD, read-out: MIC50): 1.2 ± 0.026 µM (≈ 0.536 µg/mL)
